Assay results taken from patent US8563683B2, “Synthetic lung surfactant and use thereof” (University of Rochester, priority 2006, dated 2013).
pKd: −log10 of the molar value.

How the values were obtained:
[1] = biological target: dipalmitoyl phosphatidylcholine (DPPC); assay: Plasmon resonance (Biacore 3000) binding of lipid liposomes to peptide film; conditions: DPPC liposomes over peptide film on CM5 chip, 37° C.; read-out: dissociation constant KD (koff/kon)
Protocol: (§1) Super Mini-B peptide was also characterized in terms of its binding (association) affinity for lipids by plasmon resonance using a Biacore 3000 system (Biacore, Uppsala, Sweden). Peptide self-films were chemically-linked using a CM5 sensor chip (BR-1000-14, research grade), and lipid liposomes in running buffer were flowed over the chip to determine the degree of specific lipid association with the peptide film at 37° C. The off and on rates and dissociation constant KD (KD=koff/kon) were calculated by BIAevaluation Software Version 4.1.

DEPN-8 = assay: as above; conditions: DEPN-8 liposomes over peptide film on CM5 chip, 37° C.; read-out: dissociation constant KD (koff/kon)
Protocol: as §1

[2] = Surface activity on pulsating bubble surfactometer (minimum surface tension); format: physicochemical; conditions: 37° C., 20 cycles/min, 50% area compression, lipid […] except SLM (1.0 mg/ml)
Protocol: Surfactant compositions were formulated using various molar or wt ratios of lipid analogs or naturally occurring lipids, with the addition of native lung surface proteins or synthetic peptides, and optionally a saturated free fatty acid in the indicated wt percentage based on the total weight of the intermediate lipid formulation. Surfactant compositions were dispersed in 0.15M NaCl+2 mM CaCl2 and placed in a sample chamber mounted on the pulsator unit of a bubble surfactometer. All surfactants were studied at a lipid concentration of 2.5 mg/ml, and in addition a mixture of synthetic ester-linked phospholipids (SLM) plus Super Mini-B was studied at a lipid concentration of 1 mg/ml.
A tiny air bubble was formed and pulsated between maximum and minimum radii of 0.55 and 0.4 mm, respectively, while the pressure drop across the air-water interface of the bubble was measured with a precision transducer. Surface tension was calculated from the measured pressure drop at minimum radius (0.4 mm) from the Laplace equation (Enhorning, “Pulsating Bubble Technique for Evaluation of Pulmonary Surfactant,” J Appl Physiol 43:198-203 (1977); Hall et al., “Approximations in the Measurement of Surface Tension with the Oscillating Bubble Surfactometer,” J Appl Physiol 75:468-477 (1993), each of which is hereby incorporated by reference in its entirety).
The high surface activity of synthetic lung surfactants containing DEPN-8 or 9:1 DEPN-8:PG-A or 9:1 DEPN-8:PG-B plus 1.5% by weight of Mini-B, FK20, or F4K is shown in Table 1. Activity is also shown for mixtures containing two glycerophospholipids found in endogenous lung surfactant, 8:2 (molar ratio) dipalmitoyl phosphatidylcholine (DPPC) and palmitoyl-oleoyl phosphatidylglycerol (POPG), with or without added synthetic peptides. Also studied is a synthetic lipid mixture containing 16:10:6:1:2 (by weight) DPPC, palmitoyl-oleoyl-phosphatidylcholine (POPC), POPG, palmitoyl-oleoyl-phosphatidylethanolamine (POPE), and cholesterol combined with Super Mini B (SEQ ID NO: 13). The surface activity of DEPN-8+1.5% bovine SP-B/C (mixture of bovine surfactant proteins B/C purified on a column from extracted calf lung surfactant) is additionally shown as a positive control. As described in the preceding paragraph, the surface activity measurements in Table 1 were obtained with a pulsating bubble surfactometer in vitro. Measurements of surface activity on this instrument reflect the combined effects of adsorption and dynamic film compression at a cycling rate (20 cycles/min), temperature (37° C.), and area compression (50% compression from maximum to minimum area) relevant for the mammalian lungs in vivo (Notter, Lung Surfactants: Basic Science and Clinical Applications, Marcel Dekker, Inc, New York (2000); Enhorning, “Pulsating Bubble Technique for Evaluation of Pulmonary Surfactant,” J Appl Physiol 43:198-203 (1977); Notter et al., “Pulmonary Surfactant: Physical Chemistry, Physiology and Replacement,” Rev Chem Eng 13:1-118 (1997), each of which is hereby incorporated by reference in its entirety). Prior publications have shown that assessments of surface activity on the bubble apparatus correlate well with the physiological activity of exogenous surfactants in animal lungs (see Notter, Lung Surfactants: Basic Science and Clinical Applications, Marcel Dekker, Inc, New York (2000); Notter et al., “Pulmonary Surfactant: Physical Chemistry, Physiology and Replacement,” Rev Chem Eng 13:1-118 (1997); Holm et al., “Effects of Hemoglobin and Cell Membrane Lipids on Pulmonary Surfactant Activity,” J Appl Physiol 63:1434-1442 (1987), each of which is hereby incorporated by reference in its entirety). […] The activity of these surfactant formulations of the present invention also approached or exceeded the positive control DEPN-8+1.5% bovine SP-B/C. […]

| Compound | pKd [1] | pKd (DEPN-8) | Surface tension at minimum bubble radius at time 0.5 min ([2]; 0.5 min pulsation) [mN/m] | Surface tension at minimum bubble radius at time 1 min ([2]; 1 min pulsation) [mN/m] | Surface tension at minimum bubble radius at time 2 min ([2]; 2 min pulsation) [mN/m] | Surface tension at minimum bubble radius at time 5 min ([2]; 5 min pulsation) [mN/m] | Surface tension at minimum bubble radius at time 10 min ([2]; 10 min pulsation) [mN/m] | Surface tension at minimum bubble radius at time 15 min ([2]; 15 min pulsation) [mN/m] | Surface tension at minimum bubble radius at time […] ([2]; […] pulsation) [mN/m] |
| --- | --- | --- | --- | --- | --- | --- | --- | --- | --- |
| FPIPLPYCWLCRALIKRIQAMIPKGGRMLPQLVCRLVLRCS [Super Mini-B] | 6.11 | 7.20 | – | – | – | – | – | – | – |
| CCCCCCCCCCCCCCCCOCC(COP(=O)(O)CCC[N+](C)(C)C)OCCCCCCCCCCCCCCCC (racemic) [DEPN-8, [(±)-trimethyl(3-phosphonopropyl)ammonium, mono(2,3-bis(hexadecyloxy)propyl ester]] | – | – | 27 ± 2 | 21 ± 2 | 14 ± 2 | 6 ± 1 | 2 ± 1 | <1 | 32 ± 2 |
